Drawing on US9630956B2, “Compounds useful as inhibitors of ATR kinase” (Vertex Pharmaceuticals Incorporated, priority 2010, dated 2017), this text covers Ki for 53 molecules.

This assay has as its target full-length ATR (Homo sapiens (Human), UniProt Q13535). As to the kind of experiment: ATR Inhibition Assay (radioactive-phosphate incorporation). The format is biochemical. The method, then:
Compounds were screened for their ability to inhibit ATR kinase using a radioactive-phosphate incorporation assay. Assays were carried out in a mixture of 50 mM Tris/HCl (pH 7.5), 10 mM MgCl2 and 1 mM DTT. Final substrate concentrations were 10 μM [γ-33P]ATP (3 mCi 33P ATP/mmol ATP, Perkin Elmer) and 800 μM target peptide ([…]).
Assays were carried out at 25° C. in the presence of 5 nM full-length ATR. An assay stock buffer solution was prepared containing all of the reagents listed above, with the exception of ATP and the test compound of interest. 13.5 μL of the stock solution was placed in a 96 well plate followed by addition of 2 μL of DMSO stock containing serial dilutions of the test compound (typically starting from a final concentration of 15 μM with 3-fold serial dilutions) in duplicate (final DMSO concentration 7%). The plate was pre-incubated for 10 minutes at 25° C. and the reaction initiated by addition of 15 μL [γ-33P]ATP (final concentration 10 μM).
The reaction was stopped after 24 hours by the addition of 30 μL 0.1 M phosphoric acid containing 2 mM ATP. A multiscreen phosphocellulose filter 96-well plate (Millipore, Cat no. MAPHNOB50) was pretreated with 100 μL 0.2M phosphoric acid prior to the addition of 45 μL of the stopped assay mixture. The plate was washed with 5×200 μL 0.2M phosphoric acid. After drying, 100 μL Optiphase ‘SuperMix’ liquid scintillation cocktail (Perkin Elmer) was added to the well prior to scintillation counting (1450 Microbeta Liquid Scintillation Counter, Wallac).
After removing mean background values for all of the data points, Ki(app) data were calculated from non-linear regression analysis of the initial rate data using the Prism software package (GraphPad Prism version 3.0cx for Macintosh, GraphPad Software, San Diego Calif., USA).
Below is a chart showing the ATR Inhibition Ki values of compounds of the disclosure.

[1] abbreviates: ATR Inhibition Ki(app), 10 μM ATP, 800 μM target peptide, 5 nM full-length ATR, 25° C.

Molecules are shown by their SMILES. Where two headings read alike, the source gives them in different places.

Sequence of full-length ATR (Q13535 whole entry): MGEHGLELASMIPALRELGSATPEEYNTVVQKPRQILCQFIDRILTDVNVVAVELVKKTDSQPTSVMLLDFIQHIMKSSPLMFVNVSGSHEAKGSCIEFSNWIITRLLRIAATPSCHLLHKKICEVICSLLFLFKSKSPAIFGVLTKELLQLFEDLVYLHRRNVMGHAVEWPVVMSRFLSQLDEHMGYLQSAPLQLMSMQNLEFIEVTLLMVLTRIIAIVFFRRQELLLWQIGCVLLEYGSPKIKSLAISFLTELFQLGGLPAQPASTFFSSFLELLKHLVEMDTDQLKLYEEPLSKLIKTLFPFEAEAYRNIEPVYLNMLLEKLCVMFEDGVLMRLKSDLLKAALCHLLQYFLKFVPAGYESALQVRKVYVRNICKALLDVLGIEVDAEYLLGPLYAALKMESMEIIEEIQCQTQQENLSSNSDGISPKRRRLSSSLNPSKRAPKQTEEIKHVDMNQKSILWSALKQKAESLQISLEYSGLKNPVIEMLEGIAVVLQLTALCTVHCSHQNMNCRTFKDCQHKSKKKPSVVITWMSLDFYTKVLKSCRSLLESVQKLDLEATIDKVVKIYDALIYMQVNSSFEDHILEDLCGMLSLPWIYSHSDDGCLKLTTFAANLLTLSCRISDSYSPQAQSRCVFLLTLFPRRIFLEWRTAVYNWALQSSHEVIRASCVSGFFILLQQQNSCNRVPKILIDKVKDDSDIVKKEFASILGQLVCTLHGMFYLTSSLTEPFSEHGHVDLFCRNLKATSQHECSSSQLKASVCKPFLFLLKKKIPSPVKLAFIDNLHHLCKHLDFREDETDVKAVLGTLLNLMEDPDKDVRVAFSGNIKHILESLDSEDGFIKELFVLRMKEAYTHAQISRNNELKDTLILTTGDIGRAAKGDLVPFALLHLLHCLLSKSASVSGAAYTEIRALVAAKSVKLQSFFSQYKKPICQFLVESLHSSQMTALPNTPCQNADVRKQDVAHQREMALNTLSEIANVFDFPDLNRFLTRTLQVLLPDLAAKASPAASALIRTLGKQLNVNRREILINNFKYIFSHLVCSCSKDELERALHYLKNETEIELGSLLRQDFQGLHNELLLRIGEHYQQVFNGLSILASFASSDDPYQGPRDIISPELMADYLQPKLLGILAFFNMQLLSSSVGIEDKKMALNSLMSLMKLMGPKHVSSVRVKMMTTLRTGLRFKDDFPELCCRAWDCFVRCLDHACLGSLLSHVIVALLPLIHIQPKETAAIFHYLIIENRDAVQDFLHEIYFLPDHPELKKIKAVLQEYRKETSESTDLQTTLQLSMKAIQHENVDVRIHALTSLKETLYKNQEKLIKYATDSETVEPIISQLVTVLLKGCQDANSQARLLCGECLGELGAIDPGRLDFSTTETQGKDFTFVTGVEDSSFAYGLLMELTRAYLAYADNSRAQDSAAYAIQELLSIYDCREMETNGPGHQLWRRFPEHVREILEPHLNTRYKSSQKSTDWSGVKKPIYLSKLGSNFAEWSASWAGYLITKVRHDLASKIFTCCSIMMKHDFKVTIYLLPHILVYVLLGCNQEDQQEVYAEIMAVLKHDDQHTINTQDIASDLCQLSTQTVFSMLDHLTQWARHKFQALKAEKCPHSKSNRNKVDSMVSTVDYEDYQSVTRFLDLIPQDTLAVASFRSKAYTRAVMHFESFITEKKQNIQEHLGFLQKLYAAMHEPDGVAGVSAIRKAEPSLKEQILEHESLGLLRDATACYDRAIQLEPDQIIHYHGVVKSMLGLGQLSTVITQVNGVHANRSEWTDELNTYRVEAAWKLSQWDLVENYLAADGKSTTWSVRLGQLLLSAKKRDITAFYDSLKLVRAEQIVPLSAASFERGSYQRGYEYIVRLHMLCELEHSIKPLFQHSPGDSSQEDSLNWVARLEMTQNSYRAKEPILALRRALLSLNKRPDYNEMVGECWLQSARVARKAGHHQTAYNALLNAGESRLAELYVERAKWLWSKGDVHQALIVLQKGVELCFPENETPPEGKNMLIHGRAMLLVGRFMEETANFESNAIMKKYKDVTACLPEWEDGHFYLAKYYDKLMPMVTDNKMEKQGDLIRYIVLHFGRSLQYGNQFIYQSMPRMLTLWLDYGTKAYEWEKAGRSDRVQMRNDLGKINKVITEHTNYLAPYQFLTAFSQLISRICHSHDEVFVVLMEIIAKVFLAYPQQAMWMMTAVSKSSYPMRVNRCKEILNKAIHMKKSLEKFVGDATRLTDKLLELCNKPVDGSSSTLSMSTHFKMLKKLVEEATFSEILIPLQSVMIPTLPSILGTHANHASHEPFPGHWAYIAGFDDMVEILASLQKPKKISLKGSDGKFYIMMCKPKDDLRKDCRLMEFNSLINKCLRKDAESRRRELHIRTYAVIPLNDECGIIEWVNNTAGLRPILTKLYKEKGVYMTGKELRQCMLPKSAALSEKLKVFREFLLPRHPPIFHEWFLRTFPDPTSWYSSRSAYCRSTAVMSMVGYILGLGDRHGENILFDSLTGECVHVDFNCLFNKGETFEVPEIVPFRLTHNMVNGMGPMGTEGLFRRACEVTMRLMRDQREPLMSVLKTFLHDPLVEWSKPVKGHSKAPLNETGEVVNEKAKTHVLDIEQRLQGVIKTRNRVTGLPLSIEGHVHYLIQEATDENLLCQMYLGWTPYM

`CNCc1ccc(-c2nnc(-c3nc(-c4ccc(=O)n(C)c4)cnc3N)o2)cc1` [Compound I-1]: under setting [1], the Ki was 5 to 50 nM. In the case of `CNCc1ccc(-c2nnc(-c3nc(-c4ccc(=O)n(CCOC)c4)cnc3N)o2)cc1` [Compound I-2], the Ki was 5 to 50 nM. Same read-out and setting: for `CNCc1ccc(-c2nnc(-c3nc(-c4ccc(=O)n(CCO)c4)cnc3N)o2)cc1` [Compound I-4] the value was 5 to 50 nM; for `CNCc1ccc(-c2nnc(-c3nc(-c4ccc(=O)n(CCCN)c4)cnc3N)o2)cc1` [Compound I-5], 50 to 100 nM. As to `CNCc1ccc(-c2nnc(-c3nc(-c4ccc(=O)n(CC#N)c4)cnc3N)o2)cc1` [Compound I-7], under setting [1], the Ki was 5 to 50 nM.

For `CNCc1ccc(-c2nnc(-c3nc(-c4ccc(=O)n(C5CCOC5)c4)cnc3N)o2)c(OC)c1` (centres unmarked) [Compound I-8], the Ki is 5 to 50 nM. Same read-out and setting: for `CNCc1ccc(-c2nnc(-c3nc(-c4ccc(=O)n(C5CCOC5)c4)cnc3N)o2)cc1` (centres unmarked) [Compound I-9] the value was 5 to 50 nM. With `CNCc1ccc(-c2nnc(-c3nc(-c4ccc(=O)n(C(C)C)c4)cnc3N)o2)c(F)c1` [Compound I-10], under setting [1], the Ki is ≤ 5 nM. On the same count and under the same terms, for `CNCc1ccc(-c2nnc(-c3nc(-c4ccc(=O)n(C(C)C)c4)cnc3N)o2)c(C)c1` [Compound I-12] the value was ≤ 5 nM.

`Cc1cc(CN[C@H]2CCOC2)ccc1-c1nnc(-c2nc(-c3ccc(=O)n(C(C)C)c3)cnc2N)o1` [Compound I-13, 5-[5-amino-6-[5-[2-methyl-4-[[[(3S)-tetrahydrofuran-3-yl]amino]methyl]phenyl]-1,3,4-oxadiazol-2-yl]pyrazin-2-yl]-1-isopropyl-pyridin-2-one]: the Ki under setting [1] is ≤ 5 nM. As to `CNCc1ccc(-c2nnc(-c3nc(-c4ccc(=O)n(C5CCCC5)c4)cnc3N)o2)c(C)c1` [Compound I-14], the Ki under setting [1] is ≤ 5 nM. The same measure, in the same setting: under `CNCc1ccc(-c2nnc(-c3nc(-c4ccc(=O)n(C(C)C#N)c4)cnc3N)o2)c(C)c1` (centres unmarked) [Compound I-16] stands ≤ 5 nM. Same read-out and setting: for `CNCc1ccc(-c2nnc(-c3nc(-c4ccc(=O)n(C(C)COC)c4)cnc3N)o2)c(C)c1` (centres unmarked) [Compound I-17] the value was ≤ 5 nM. On the same count and under the same terms, for `CNCc1ccc(-c2nnc(-c3nc(-c4ccc(=O)n(C(C)C5CC5)c4)cnc3N)o2)c(C)c1` (centres unmarked) [Compound I-18] the value was ≤ 5 nM; for `CCn1cc(-c2cnc(N)c(-c3nnc(-c4ccc(CNC)cc4OC)o3)n2)ccc1=O` [Compound I-19], ≤ 5 nM; for `Cc1cc(CNC(C)C)ccc1-c1nnc(-c2nc(-c3ccc(=O)n(C(C)C)c3)cnc2N)o1` [Compound I-20], ≤ 5 nM.

In the case of `Cc1cc(CNC(C)(C)C)ccc1-c1nnc(-c2nc(-c3ccc(=O)n(C(C)C)c3)cnc2N)o1` [Compound I-21], the Ki under setting [1] was ≤ 5 nM.

With `CC(C)n1cc(-c2cnc(N)c(-c3cc(-c4ccc(CN[C@H]5CCOC5)cc4)no3)n2)ccc1=O` [Compound I-23], the Ki under setting [1] was ≤ 5 nM.

For `CNCc1ccc(-c2nnc(-c3nc(-c4ccc(=O)n(CCN(C)C)c4)cnc3N)o2)c(C)c1` [Compound I-24, 5-[5-amino-6-[5-[2-methyl-4-(methylaminomethyl)phenyl]-1,3,4-oxadiazol-2-yl]pyrazin-2-yl]-1-(2-dimethylaminoethyl)pyridin-2-one], the Ki lay within 5 to 50 nM. With `CCC(C)n1cc(-c2cnc(N)c(-c3nnc(-c4ccc(CNC)cc4OC)o3)n2)ccc1=O` (centres unmarked) [Compound I-25], the Ki under setting [1] is ≤ 5 nM. On to `CNCc1ccc(-c2nnc(-c3nc(-c4ccc(=O)n(CC(C)C)c4)cnc3N)o2)c(OC)c1` [Compound I-26], for which the Ki under setting [1] is ≤ 5 nM. For `CNCc1ccc(-c2nnc(-c3nc(-c4ccc(=O)n(CC(F)(F)F)c4)cnc3N)o2)c(C)c1` [Compound I-27], under setting [1], the Ki was ≤ 5 nM. Same read-out and setting: for `CNCc1ccc(-c2nnc(-c3nc(-c4ccc(=O)n(CC(F)(F)F)c4)cnc3N)o2)c(OC)c1` [Compound I-28] the value was ≤ 5 nM; for `CNCc1ccc(-c2cc(-c3nc(-c4ccc(=O)n(C(C)C)c4)cnc3N)on2)c(F)c1` [Compound I-29], ≤ 5 nM; for `CC#CC(C)n1cc(-c2cnc(N)c(-c3nnc(-c4ccc(CNC)cc4C)o3)n2)ccc1=O` (centres unmarked) [Compound I-30], ≤ 5 nM. On the same count and under the same terms, for `CNCc1ccc(-c2nnc(-c3nc(-c4ccc(=O)n(C(C)CF)c4)cnc3N)o2)c(C)c1` (centres unmarked) [Compound I-31] the value was 5 to 50 nM.

With `CNCc1ccc(-c2nnc(-c3nc(-c4ccc(=O)n(C5CCC5)c4)cnc3N)o2)c(C)c1` [Compound I-33], the Ki under setting [1] is ≤ 5 nM. On the same count and under the same terms, for `CNCc1ccc(-c2nnc(-c3nc(-c4ccc(=O)n(C(C)C#N)c4)cnc3N)o2)c(OC)c1` (centres unmarked) [Compound I-34, 2-[5-[5-amino-6-[5-[2-methoxy-4-(methylaminomethyl)phenyl]-1,3,4-oxadiazol-2-yl]pyrazin-2-yl]-2-oxo-1-pyridyl]propanenitrile] the value was ≤ 5 nM; for `COc1cc(CNC(C)(C)C)ccc1-c1nnc(-c2nc(-c3ccc(=O)n(C(C)C)c3)cnc2N)o1` [Compound I-35], ≤ 5 nM. Turning to `CNCc1ccc(-c2nnc(-c3nc(-c4ccc(=O)n(C(C)CO)c4)cnc3N)o2)c(OC)c1` (centres unmarked) [Compound I-36], the Ki under setting [1] is ≤ 5 nM. With `CNCc1ccc(-c2nnc(-c3nc(-c4ccc(=O)n(C(C)C(=O)O)c4)cnc3N)o2)c(C)c1` (centres unmarked) [Compound I-38, 2-[5-[5-amino-6-[5-[2-methyl-4-(methylaminomethyl)phenyl]-1,3,4-oxadiazol-2-yl]pyrazin-2-yl]-2-oxo-1-pyridyl]propanoic acid], the Ki is 5 to 50 nM.

For the molecule `CC(C)n1cc(-c2cnc(N)c(-c3nnc(-c4ccc(CNC(C)(C)C)cc4C#N)o3)n2)ccc1=O` [Compound I-40], the Ki under setting [1] lay in the range of 5 to 50 nM. Regarding `CNCc1ccc(-c2nnc(-c3nc(-c4ccc(=O)n(C(C)C(F)(F)F)c4)cnc3N)o2)c(OC)c1` (centres unmarked) [Compound I-41], the Ki under setting [1] is ≤ 5 nM. Same read-out and setting: for `CC(N)c1ccc(-c2nnc(-c3nc(-c4ccc(=O)n(C(C)C)c4)cnc3N)o2)cc1` (centres unmarked) [Compound I-45] the value was 5 to 50 nM; for `CC(C)n1cc(-c2cnc(N)c(-c3nnc(-c4cccc(CNC(C)(C)C)c4)o3)n2)ccc1=O` [Compound I-46], 50 to 100 nM. Turning to `CNCc1cccc(-c2nnc(-c3nc(-c4ccc(=O)n(C(C)C)c4)cnc3N)o2)c1` [Compound I-47, 5-[5-amino-6-[5-[3-(methylaminomethyl)phenyl]-1,3,4-oxadiazol-2-yl]pyrazin-2-yl]-1-isopropyl-pyridin-2-one], the Ki lay in the range of 5 to 50 nM. Still for that read-out and setting: for `Nc1ncc(-c2ccc(=O)n(C3CCCC3)c2)nc1-c1cc(-c2ccc(CN3CCCC3)cc2)no1` [Compound I-51] the value was 5 to 50 nM. For `CC(C)(CO)NCc1ccc(-c2cc(-c3nc(-c4ccc(=O)n(C5CCCC5)c4)cnc3N)on2)cc1` [Compound I-52], the Ki was 5 to 50 nM. Regarding `CNCc1ccc(-c2cc(-c3nc(-c4ccc(=O)n(C5CCCC5)c4)cnc3N)on2)c(F)c1` [Compound I-56], the Ki under setting [1] is ≤ 5 nM. Still for that read-out and setting: for `CC(C)n1cc(-c2cnc(N)c(-c3cc(-c4ccc(C(N)CF)cc4)no3)n2)ccc1=O` (centres unmarked) [Compound I-59] the value was 5 to 50 nM.

With `CC(C)n1cc(-c2cnc(N)c(-c3cc(-c4ccc(CNc5ccccc5)cc4)no3)n2)ccc1=O` [Compound I-65], the Ki fell in the range of 50 to 100 nM. With `CNCc1ccc(-c2cc(-c3nc(-c4ccc(=O)n(C5CCOCC5)c4)cnc3N)on2)cc1` [Compound I-66], the Ki under setting [1] is ≤ 5 nM.

Turning to `C=Cc1cc(-c2cnc(N)c(-c3cc(-c4ccc(CNC)cc4)no3)n2)cn(C(C)C)c1=O` [Compound I-67], the Ki under setting [1] lay in the range of 50 to 100 nM. The same measure, in the same setting: under `CNCc1ccc(-c2cc(-c3nc(-c4ccc(=O)n(Cc5ccoc5)c4)cnc3N)on2)cc1` [Compound I-69] stands ≤ 5 nM. Same read-out and setting: under `CNCc1ccc(-c2cc(-c3nc(-c4ccc(=O)n(CCN5CCCC5=O)c4)cnc3N)on2)cc1` [Compound I-70] stands ≤ 5 nM.

Consider `CNCc1ccc(-c2cc(-c3nc(-c4cc(Br)c(=O)n(C(C)C)c4)cnc3N)on2)cc1` [Compound I-71], for which the Ki under setting [1] fell in the range of 5 to 50 nM. Same read-out and setting: under `CCc1cc(-c2cnc(N)c(-c3cc(-c4ccc(CNC)cc4)no3)n2)cn(C(C)C)c1=O` [Compound I-75] stands 50 to 100 nM; under `CNCc1ccc(-c2cc(-c3nc(-c4ccc(=O)[nH]c4)cnc3N)on2)cc1` [Compound I-76], 5 to 50 nM. The same measure, in the same setting: under `CNCc1ccc(-c2cc(-c3nc(-c4ccc(=O)n(C(C)C5CC5)c4)cnc3N)on2)cc1` (centres unmarked) [Compound I-79] stands ≤ 5 nM; under `CNCc1ccc(-c2cc(-c3nc(-c4ccc(=O)n(Cc5nccs5)c4)cnc3N)on2)cc1` [Compound I-84], ≤ 5 nM. As for `CNCc1ccc(-c2cc(-c3nc(-c4ccc(=O)n(Cc5nccn5C)c4)cnc3N)on2)cc1` [Compound I-85], the Ki under setting [1] was ≤ 5 nM. On the same count and under the same terms, for `CNCc1ccc(-c2cc(-c3nc(-c4ccc(=O)n(CC5CCCO5)c4)cnc3N)on2)cc1` (centres unmarked) [Compound I-86] the value was ≤ 5 nM; for `CNCc1ccc(-c2cc(-c3nc(-c4c[nH]c(=O)c(CO)c4)cnc3N)on2)cc1` [Compound I-88], ≤ 5 nM.
